Assay [1] concerns E. coli CFT073 (UPEC). In words: MIC, standard microdilution assay, growing UPEC. It is filed as cell-based, Escherichia coli. The note with it: E. coli, pH 7.4. The protocol: (§1) Minimal inhibitory concentrations (MICs) were determined using a standard microdilution assay protocol. CA-MHB medium buffered with 40 mM HEPES (pH 7.4) was used to determine the MICs for UPEC, P. aeruginosa, and S. aureus. […] MICs for UPEC were also determined in LPM buffered with 30 mM MES (pH 5.5). For S. flexneri, MICs were determined in tryptic soy broth (TSB). The assay was performed in triplicates.

Assay [2] has as its system non-growing UPEC CFT073. The experiment in a line: Dilution-regrowth assay (screen, hit validation, dose-response) on stationary-phase UPEC. It is filed as cell-based, Escherichia coli. The conditions noted are these: for OD600 at 6hr, Mean: after dilution into drug-free medium; for EC50: E. coli, pH 7.4, regrowth delay of non-growing bacteria, 1:4 CA-MHB, 24 h treatment, OD600 6 h after 2500-fold dilution, read-out: EC50; for activity in the dilution-regrowth screen: non-growing UPEC, 20 μM. The protocol: The cultures were incubated for 24 h in non-baffled Erlenmeyer flasks at 37 °C with shaking at 200 rpm.
The high-throughput screening (HTS) procedure was based on the protocol by Hazan and colleagues[15] and conducted at the Chemical Biology Consortium Sweden (CBCS) screening facility. […] Each plate included eight wells with 200 nl of 10 mM gatifloxacin, finafloxacin, and kanamycin solutions, along with 8-wells containing 200 nl of DMSO as controls. After 24 h incubation,100 μl of the culture was dispensed into each well of the 384-well plates for screening at a final concentration of 20 μM. The plates were sealed with parafilm and incubated at 37 °C for 24 h in closed humidified boxes, with wet paper towels added to prevent evaporation. […] The plates were incubated at 37 °C for 6 h in humidified boxes, then OD600 was measured using a microplate reader.
For hit validation, bacteria were cultivated, and the dilution-regrowth assay was conducted following the same protocol used in the primary screen. Hit compounds were dispensed into 384-well plates using the Echo® (Labcyte) system, with 200, 100, or 50 nl of a 10 mM solution in DMSO added per well, yielding final screening concentrations of 20, 10, and 5 μM, respectively. OD600 values of regrowing samples were normalized to the mean OD600 of the drug-free control. The testing was conducted in two replicates.
For UPEC, dose–response analysis was conducted at the CBCS screening facility. Bacteria were cultivated, and the dilution-regrowth assay was performed according to the HTS protocol. Compounds were dispensed into 384-well plates using the Echo® (Labcyte) system, and regrowth was assessed by measuring OD600 after 6 h of incubation at 37 °C in humidified boxes. Three biological replicates were performed.
Statistical significance of the drug effects was assessed using a one-way ANOVA followed by Dunnett’s test, comparing each treatment to the drug-free control. Statistical significance of the differences in chemical characteristics between the hit compounds and the Prestwick library was assessed using a Mann–Whitney test. Statistical significance was set at P ≤ 0.05. A five-parameter logistic equation was used for asymmetric sigmoidal curve fitting and for EC50 and IC50 determination. The Venn diagram in Fig. 1F was prepared using BioVenn web application. Characteristics of the chemical and physical properties of Prestwick library compounds were obtained from Supplementary Table S1 from reference. Characteristics of the hit compounds not included in the Prestwick library were retrieved from the PubChem database.

Assay [3] deals with non-growing UPEC CFT073. In words: Dose-dependent killing analysis (CFU spot-plating) of stationary-phase UPEC. It is filed as cell-based, Escherichia coli. The conditions noted are these: E. coli in 1:4 CA-MHB (pH 7.4); for Δlog10(CFU/ml): average killing vs before treatment (8.977). On the procedure:
To differentiate between these scenarios, we used CFU counting by agar plating to assess the bactericidal effect on non-growing bacteria. […] Conversely, if no significant reduction in CFU is observed, the regrowth delay is due to PAE without killing. […] Fluoroquinolones are known to cause PAE after treatment of growing bacterial cultures.
For survival analysis, bacteria were cultivated as described for the dose–response dilution-regrowth assay. Assays with UPEC were conducted at the CBCS screening facility using 96-well plates with a 200 μl sample volume, and compounds were dispensed using the Echo® (Labcyte) system. P. aeruginosa and S. aureus samples were treated according to the protocol used for the dilution-regrowth experiments. Treated samples were serially diluted 10-fold in PBS, and 10 μl drops were spot-plated onto rectangular LB agar plates using either a Beckman NXP robot (for UPEC) or an Integra VIAFLO96 electronic pipette (for P. aeruginosa and S. aureus). The LB agar plates were incubated overnight at 37 °C and scanned. Colonies were counted at the spots of the lowest dilution where individual colonies could be accurately distinguished. Each colony was manually marked on a separate image layer using the GNU Image Manipulation Program, and counted using NIST’s Integrated Colony Enumerator (NICE 1.4) software. The experiments were performed in three biological replicates.

Assay [4] deals with P. aeruginosa DSM1117. In words: MIC, standard microdilution assay, growing P. aeruginosa. The note with it: P. aeruginosa, CA-MHB pH 7.4, read-out: MIC (μM) CA-MHB. The format is cell-based, Pseudomonas aeruginosa. On the procedure:
as §1
In general terms: Broth dilution looks for growth in wells or tubes with falling amounts of substance.

The test system of assay [5] is S. flexneri 5a M90T. In words: MIC in tryptic soy broth, S. flexneri. It is filed as cell-based, Shigella flexneri. On the procedure: as §1
Assay [6] concerns S. aureus DSM2569. In words: MIC, standard microdilution assay, growing S. aureus. It is filed as cell-based, Staphylococcus aureus. The note with it: Staphylococcus aureus, DSM2569; S. aureus; CA-MHB pH 7.4; read-out: MIC (μM) CA-MHB. The protocol:
as §1

In brackets after ≈: the same amount, converted by molar mass. Where two headings read alike, the source gives them in different places.

Regarding `CCC[C@H](NC(=O)/C(C#N)=C/c1cccc(Br)n1)c1ccccc1` [Degrasyn], the MIC in assay [1] (1:4 diluted CA-MHB, read-out: MIC (μM) 1:4 CA-MHB) is >80 µM; in assay [1] (CA-MHB, read-out: MIC (μM) CA-MHB), >80 µM; in assay [4], >80 µM. The “MIC (μM) CA-MHB +PAβN” value in assay [1] (CA-MHB with 10 μg/ml efflux pump inhibitor PaβN) was >80 µM. Moreover, the “OD600 at 6hr, Mean” value in assay [2] (E. coli in 1:4 CA-MHB (pH 7.4), 0.25 μM) is 0.603; in assay [2] (E. coli in 1:4 CA-MHB (pH 7.4), 0.5 μM), 0.604; in assay [2] (E. coli in 1:4 CA-MHB (pH 7.4), 1 μM), 0.558; in assay [2] (E. coli in 1:4 CA-MHB (pH 7.4), 2.5 μM), 0.295; in assay [2] (E. coli in 1:4 CA-MHB (pH 7.4), 5 μM) it was 0.108; in assay [2] (E. coli in 1:4 CA-MHB (pH 7.4), 10 μM) it was 0.069. Also, the “OD600 at 6hr, Mean” value in assay [2] (E. coli in 1:4 CA-MHB (pH 7.4), 30 μM) stood at 0.079; in assay [2] (E. coli in LPM (pH 5.5), 0.25 μM), 0.554; in assay [2] (E. coli in LPM (pH 5.5), 0.5 μM), 0.565; in assay [2] (E. coli in LPM (pH 5.5), 1 μM), 0.575; in assay [2] (E. coli in LPM (pH 5.5), 2.5 μM), 0.579; in assay [2] (E. coli in LPM (pH 5.5), 5 μM), 0.583. For the same compound, the “OD600 at 6hr, Mean” value in assay [2] (E. coli in LPM (pH 5.5), 10 μM) is on record as 0.582; in assay [2] (E. coli in LPM (pH 5.5), 30 μM), 0.588. The EC50 in assay [2] was 2.22 µM. Also, the “Log10(CFU/ml), Replicate #1” value in assay [3] (0.25 μM) is 9.301 Log10(CFU/ml); in assay [3] (0.5 μM), 9.279 Log10(CFU/ml); in assay [3] (1 μM), 9.204 Log10(CFU/ml); in assay [3] (2.5 μM) it was 9.204 Log10(CFU/ml); in assay [3] (5 μM) it was 8.954 Log10(CFU/ml); in assay [3] (10 μM), 6.623 Log10(CFU/ml). Moreover, the “Log10(CFU/ml), Replicate #2” value is recorded as 8.699 Log10(CFU/ml) in assay [3] (0.25 μM); 8.505 Log10(CFU/ml) in assay [3] (0.5 μM); 8.477 Log10(CFU/ml) in assay [3] (1 μM); 8.845 Log10(CFU/ml) in assay [3] (2.5 μM); 6.778 Log10(CFU/ml) in assay [3] (5 μM); 6.699 Log10(CFU/ml) in assay [3] (10 μM). For the same compound, the “Log10(CFU/ml), Replicate #3” value in assay [3] (0.25 μM) is 9.079 Log10(CFU/ml); in assay [3] (0.5 μM) it was 8.602 Log10(CFU/ml); in assay [3] (1 μM), 9.204 Log10(CFU/ml); in assay [3] (2.5 μM) it was 8.301 Log10(CFU/ml); in assay [3] (5 μM), 7.176 Log10(CFU/ml); in assay [3] (10 μM) it was 6.532 Log10(CFU/ml). Besides, the “Δlog10(CFU/ml)” value in assay [3] (0.25 μM) is -0.049 log10(CFU/ml); in assay [3] (0.5 μM) it was 0.182 log10(CFU/ml); in assay [3] (1 μM) it was 0.016 log10(CFU/ml); in assay [3] (2.5 μM), 0.194 log10(CFU/ml); in assay [3] (5 μM) it was 1.341 log10(CFU/ml); in assay [3] (10 μM), 2.359 log10(CFU/ml). Besides, in assay [5] (S. flexneri, extracellular bacteria in TSB), the “MIC (μM) TSB” value was >128 µM.

`CC[C@H]1OC(=O)[C@H](C)C(=O)[C@H](C)[C@@H](O[C@@H]2O[C@H](C)C[C@H](N(C)C)[C@H]2O)[C@](C)(OC)C[C@@H](C)C(=O)[C@H](C)[C@H]2N(CCCCn3cnc(-c4cccnc4)c3)C(=O)O[C@]12C` [telithromycin]: in assay [2], the “activity in the dilution-regrowth screen” value was “no activity”.

For `CC[C@H]1OC(=O)C[C@@H](O)[C@H](C)[C@@H](O[C@@H]2O[C@H](C)[C@@H](O[C@H]3C[C@@](C)(O)[C@@H](O)[C@H](C)O3)[C@H](N(C)C)[C@H]2O)[C@@H](CC=O)C[C@@H](C)C(=O)/C=C/C(C)=C/[C@@H]1CO[C@@H]1O[C@H](C)[C@@H](O)[C@@H](OC)[C@H]1OC` [Tylosin], the MIC in assay [1] (Escherichia coli, 1:4 diluted CA-MHB, read-out: MIC (μM) 1:4 CA-MHB) is 160 µM (≈ 147 µg/mL); in assay [1] (Escherichia coli, CA-MHB, read-out: MIC (μM) CA-MHB) it was 160 µM (≈ 147 µg/mL); in assay [6] it was 1 µM (≈ 0.916 µg/mL); in assay [4] (Pseudomonas aeruginosa, DSM1117), > 160 µM; in assay [5] (Shigella flexneri, 5AM90T, read-out: MIC (μM) TSB) it was 128 µM (≈ 117 µg/mL). Moreover, in assay [2] (Escherichia coli), the concentration for a half-maximal effect (EC50) was 7.28 µM.

Turning to colistin, the “activity in the dilution-regrowth screen” value in assay [2] is reported as “not identified as hits”.

As a reminder, the MIC is the lowest concentration that inhibits growth of the organism. The term EC50 denotes the concentration at which the effect is half-maximal.

The values above are taken from paper PMC11992225, “Antibacterial compounds against non-growing and intracellular bacteria” (npj Antimicrobials and Resistance, 2025).
